Where two headings read alike, the source gives them in different places. Blank lines part the entries; values can stand above or below the compound they belong to.
Legend:
[1] = biological target: T1, Mushroom tyrosinase (diphenolase) (Agaricus bisporus, UniProt C7FF04); test: Mushroom tyrosinase diphenolase inhibition (L-DOPA as substrate, 475 nm); format: biochemical; settings: for IC50: substrate L-DOPA
T1 construct: purchased Sigma-Aldrich Co., St. Louis, MO, USA
Experimental: (§1) Mushroom tyrosinase (EC 1. 14. 18. 1) (Sigma-Aldrich Co., St. Louis, MO, USA) activity was performed in accordance with the previously described method with subtle modification, using L-tyrosine and L-3,4-dihydroxylphenylalanine (L-DOPA) for monophenolase and diphenolase as substrates, respectively. Two hundred sixty units/mL of the tyrosinase stock solution was prepared at optimum pH 6.8 (0.05 M phosphate buffer). The inhibitors were initially dissolved in DMSO and diluted to several concentrations. […] Then, 10 μL of the enzyme was added to the mixture. Subsequent absorbance of DOPA chrome formation was recorded at 475 nm by means of an UV-Vis spectrophotometer (SpectraMax M3, Molecular Devices, San Jose, CA, USA) in a 96-well microplate at 30 °C. Three separate determinations were conducted for each assay.
(§2) The characteristic of tyrosinase inhibition was represented by Lineweaver−Burk double-reciprocal-plot and Dixon plot at specified concentrations of the substrates and inhibitors, respectively.

[2] = tested on: B16F10 mouse melanoma cells; test: L-DOPA oxidation (cellular tyrosinase) in α-MSH-treated B16F10 melanoma cells; format: cell-based; settings: B16 cells, 48 h in the presence of α-MSH
Experimental: (§3) The B16F10 mouse melanoma cell (American Type of Culture Collection, VA, USA) were cultured as previously reported. Briefly, the cells were incubated in DMEM containing 10% fetal bovine serum and 1% penicillin/streptomycin (Sigma–Aldrich, St. Louis, MO, USA) at 37 °C in a 5% CO2 humidified incubator.
B16F10 mouse melanoma cells were seeded on to 6-well plates at a density of 1 × 10^5 cells per well and cultured for 24 h. Then, the cells were treated with α-MSH (1 μM) in the presence or absence of different concentrations of compound 1, followed by incubation for 48 h. The incubated cells were collected and dissolved with 1% Triton X-100 solution for 1 h on ice. Then, the cells were cultured for 4 h with 100 μL (2 mg/mL) L-DOPA in a 5% CO2 humidifying incubator at 37 °C condition. After that, by using a microplate reader (Bio-Rad), absorbance at 490 nm was measured.

[3] = tested on: B16F10 mouse melanoma cells; test: Cell viability assay (MTT) in B16F10 melanoma cells; format: cell-based; settings: B16 cells, 48 h
Experimental: as §3
The cell viability assay of the B16F10 mouse melanoma cells were conducted with subtle variation in previous methods. The cells were incubated in 96-well plates overnight. […] After incubation, 5 μg/mL of MTT solution was added to the each well and the cells were incubated for 3 h. After the medium was removed, the cells were treated with dimethyl sulfoxide (DMSO) and cultured at room temperature for 20 min. The absorbance at 595 nm was measured on a Bio-Rad microplate reader (Hercules, CA, USA).

[4] = tested on: B16F10 mouse melanoma cells; test: Melanin content in α-MSH-stimulated B16F10 melanoma cells; format: cell-based; settings: B16 cells, 48 h in the presence of α-MSH, read-out: Melanin Synthesis IC50
Experimental: as §3
For the analysis of melanin content accumulated in the cytosol, B16F10 mouse melanoma cells were seeded on to six-well plates at a density of 1 × 10^5 cells per well, and cultured for 24 h. Then, the cells were treated with 1 μM of α-MSH (Sigma–Aldrich, St. Louis, MO, USA) in the presence or absence of different concentrations of compound 1. Thereafter, the cells were collected using trypsin-EDTA (Lonza, Walkersville, MD, USA) and dissolved in 1 N NaOH, including 10% DMSO at 65 °C for 24 h. The melanin content was determined at 415 nm by a Bio-Rad microplate reader.

tyrosinase [5] = biological target: T2, tyrosinase (Agaricus bisporus, UniProt C7FF04); test: Fluorescence quenching measurement of binding affinity to tyrosinase
T2 construct: purchased Sigma-Aldrich Co., St. Louis, MO, USA
Experimental: To measure fluorescence from the tyrosinase enzyme, 10 μL of 260 unit/mL enzyme solution with 165 μL of phosphate buffer (0.05 M) were added into 96-well black immunoplates. Afterward, 5 μL of various concentrations (2.5–20 μM) of inhibitor was added into each well. All fluorescence spectra were obtained by a SpectraMax M3 spectrophotometer (Molecular Devices, San Jose, CA, USA). The spectra were measured from 300 to 400 nm with emission slits regulated to 2.0 nm, and the excitation wavelength was 265 nm. The Stern–Volmer quenching constant (KSV) was estimated using Equation (6). All experiments were carried out in triplicate, and the mean values were calculated. (6) […] where F0 and F are the fluorescence intensities in the absence and presence of quencher (Q). KSV is the Stern–Volmer quenching constant [L M^−1]. For static quenching, the correlation between the fluorescence intensity and the concentration of the quencher for the series of reactions can be expressed by Equation (7). (7) log[(F0 − F)/F]=logKA+nlog[Q]f
F0 and F are the fluorescence intensities in the absence and presence of inhibitor; KA is the binding constant; n is the number of binding sites of the enzyme; Qf is the concentration of inhibitor [24].

tyrosinase [6] = biological target: T2, tyrosinase; test: HPLC analysis of tyrosinase inhibition with N-acetyl-L-tyrosine as substrate; format: biochemical; settings: HPLC at 275 nm
Experimental: The HPLC analysis of tyrosinase inhibition was carried out by giving minor alterations in the previous procedure with N-acetyl-L-tyrosine as a substrate. The 4.5 mM of the substrate was prepared in the 50 mM phosphate buffer (pH 6.8). Then, 670 units/mL tyrosinase (Sigma-Aldrich Co., St. Louis, MO, USA) solution and several concentrations of the inhibitor solution were arranged. The N-acetyl-L-tyrosine was observed on 275 nm with 4.6 min of tR by eluting the mobile phase consisting of A (H2O) and B (acetonitrile, ACN), with the following isocratic condition: 0–8 min and A/B = 90:10 (v/v). After 20 μL of the sample solution was subjected to the HPLC (Pack ODS-AQ C18 column, YMC) system, the reactions were measured every 15 min. All procedures were carried out at room temperature.

[7] = biological target: T3, Mushroom tyrosinase (monophenolase) (Agaricus bisporus, UniProt C7FF04); test: Mushroom tyrosinase monophenolase inhibition (L-tyrosine as substrate, 475 nm); format: biochemical; settings: for L-Tyrosine Inhibition Mode: Lineweaver–Burk plot; for IC50: substrate L-tyrosine
T3 construct: purchased Sigma-Aldrich Co., St. Louis, MO, USA
Experimental: as §1, §2

[8] = biological target: T4, tyrosinase (monophenolase) (Agaricus bisporus, UniProt C7FF04); test: Time-dependent assays and progress curves (slow-binding kinetics, lag phase); format: biochemical, mushroom; settings: for Type of inhibitor (time-dependent inhibition): L-tyrosine, preincubation and progress curves
T4 construct: purchased Sigma-Aldrich Co., St. Louis, MO, USA
Experimental: The assays were carried out using tyrosinase (260 units) and L-tyrosine as a substrate of monophenolase in 0.25 M phosphate buffer (pH 6.8) at 30 °C. The enzyme activity was recorded sequentially for 30 min by a UV spectrophotometer. To evaluate the time-dependent inhibition and the kinetic parameters of tyrosinase, progress curves with 30 s intervals were measured at different concentrations of the inhibitor and substrate. The data were through the use of Sigma Plot (SPCC Inc., Chicago, IL, USA) as a nonlinear regression program to provide the respective parameters for each curve; A (absorbance at 475 nm), vi (initial rate), vss (steady-state rate), kobs (apparent first-order rate constant for the transition from vi to vss), and Kiapp (apparent Ki) in accordance with the following Equations (2)–(5). (2) A=vsst+vi − vss1 −exp−kobst/kobs (3) v/v0=exp (−kobst) (4) kobs=k4 (1+[I]/Kiapp) (5) Kiapp=k4/k3
The value of −kobs was estimated by a slope of the straight line from the plot of the natural log of the residual enzyme activity vs. the preincubation time. The plot of kobs vs. the concentration of inhibitors gave the values of k3, k4, and Kiapp on the basis of Morrison and Walsh’s method.

[9] = pH 6.8, 30 °C, read-out: L-DOPA IC50 Value (diphenolase)
[10] = pH 6.8, 30 °C, read-out: L-Tyrosine IC50 Value (monophenolase)
[11] = slow-binding, L-tyrosine as substrate

T3 sequence (C7FF04 1-392): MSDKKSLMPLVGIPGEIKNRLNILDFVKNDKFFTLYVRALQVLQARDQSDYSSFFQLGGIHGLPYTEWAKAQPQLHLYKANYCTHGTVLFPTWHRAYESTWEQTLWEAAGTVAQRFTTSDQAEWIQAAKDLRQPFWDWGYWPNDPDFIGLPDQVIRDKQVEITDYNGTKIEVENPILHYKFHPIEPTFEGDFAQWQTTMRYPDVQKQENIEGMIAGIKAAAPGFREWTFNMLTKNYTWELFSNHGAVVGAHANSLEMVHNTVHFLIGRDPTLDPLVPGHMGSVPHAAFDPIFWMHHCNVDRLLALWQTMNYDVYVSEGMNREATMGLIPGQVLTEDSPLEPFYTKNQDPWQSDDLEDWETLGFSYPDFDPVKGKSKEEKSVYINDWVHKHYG
T1 sequence (C7FF04 1-392): as above
T4 sequence (C7FF04 1-392): as above
T2 sequence (C7FF04 1-392): as above

SMILES: O=C1C=C(c2ccc(O)cc2O)C(Cc2ccc(O)cc2)O1 (stereo not shown) [Compound 1, Puerol A]
- Ki ([1]; diphenolase, Dixon plot): 1.95 µM
- L-DOPA Inhibition Mode ([1]; diphenolase, Lineweaver–Burk plot): competitive inhibition mode
- IC50 [1, 9]: 3.88 ± 0.3 µM
- IC50 [2]: 23.9 ± 1.4 µM
- Cytotoxicity LD50 [3]: 137.8 ± 1.2 µM
- IC50 [4]: 11.4 ± 1.2 µM
- n (number of binding sites) (tyrosinase [5]; from log[(F0 − F)/F] plot): one
- KSV (Stern–Volmer quenching constant) (tyrosinase [5]; inhibitor 2.5–20 μM, excitation 265 nm, emission 300–400 nm): 145000 L/mol
- oxidation of N-acetyl-L-tyrosine blocked (tyrosinase [6]; 5 μM): 56%
- oxidation of N-acetyl-L-tyrosine blocked (tyrosinase [6]; 10 μM): 86%
- oxidation of N-acetyl-L-tyrosine blocked (tyrosinase [6]; 20 μM, listed as Puerol A): completely inhibited
- oxidation of N-acetyl-L-tyrosine blocked (tyrosinase [6]; 20 μM, listed as puerol A): 95%
- Reversibility of inhibition ([7]; initial velocity vs tyrosinase and inhibitor concentrations): reversible inhibitor
- Ki ([7]; monophenolase, Dixon plot): 0.87 µM
- L-Tyrosine Inhibition Mode ([7]; monophenolase): Competitive
- L-Tyrosine Inhibition Mode ([7]; monophenolase, listed as puerol A): competitively
- IC50 [7, 10]: 2.2 ± 0.2 µM
- Ki ([8]; Kiapp = k4/k3): 0.107 µM
- Type of inhibitor (time-dependent inhibition) [8]: simple, reversible, slow-binding inhibitor
- Type of inhibitor (time-dependent inhibition) ([8]; listed as Puerol A): reversible, competitive, simple slow-binding inhibitor
- Type of inhibitor (time-dependent inhibition) ([8]; listed as puerol A): competitive inhibitor and reversible, simple slow-binding inhibitor
- lag phase of L-tyrosine oxidation ([8]; inhibitor 0.5–8.0 μM, 60 s without inhibitor): up to 600 s
- k3 [8, 11]: 465 M⁻¹ s⁻¹
- k4 [8, 11]: 0.003 min⁻¹

- IC50 [1, 9]: > 200 µM
- IC50 ([1]; read-out: IC50 diphenolase): 1900 µM
- IC50 [7, 10]: > 200 µM
- IC50 ([7]; read-out: IC50 monophenolase): 1500 µM
SMILES: O=C1C=C(c2ccc(O)cc2O[C@@H]2O[C@H](CO)[C@@H](O)[C@H](O)[C@H]2O)C(Cc2ccc(O)cc2)O1 (stereo partly shown) [Compound 2, Kuzubutenolide A]

SMILES: O=c1cc(CO)occ1O [Kojic acid, reference compound]
- IC50 [2]: > 500 µM
- Cytotoxicity LD50 [3]: >500 µM
- IC50 [4]: > 500 µM

— paper PMC7287670, “Tyrosinase Inhibition and Kinetic Details of Puerol A Having But-2-Enolide Structure from Amorpha fruticosa” (Molecules, 2020)
